Experiments:
[1] = UV-VIS absorption and fluorescence emission spectra; assay type: physicochemical; conditions: 0.1M phosphate buffer (1x PBS for 7d5); ± 1 nm error
bone resorption = conditions: rat model in vivo, ref. [15a]; cited from earlier work
[2] = test system: unprenylated Rap1A (uRap1A); assay: Prenylation assay: Western blot for unprenylated Rap1A in J774.2 macrophages; assay type: cell-based, mouse; conditions: 10 or 100 μM, 24 h, FIG. 5A-C
[3] = pH 7.2, 0.1M phosphate buffer; assumed the same as the corresponding fluorescent dye; cited from earlier work
[4] = RIS; not covered by the MarvinSketch note; cited from earlier work
[5] = pKa and protonation status of the heterocyclic nitrogen; assay type: physicochemical; conditions: pH 6.0; calculated by Henderson-Hasselbalch equation
Excerpt: The nucleophilicity and Lewis basicity of the nitrogen atom of the three heterocyclic N-BPs studied in this report vary, and these properties appear to be the major determinants of their conjugation reactivity. Thus, the ‘magic linker’ methodology for RIS required modification for ZOL (1d), MIN (1e), and their related analogues (1f). […] The protonation status of the heteroatom at different pH is also critical to the reactivity. […] Under such conditions, more than 50% (˜71.3% calculated) of the nitrogen of RIS will be deprotonated, and able to attack the epoxide ring nucleophilically. However, at pH 6.0, only 18% of the nitrogen of ZOL (22% for MIN) is deprotonated, thus the reactions were very slow (2d) at pH 6.0. At pH 7.0-7.5, reaction was more rapid, but the regioselectivity (N-alkylation vs. O-alkylation) for 1d, 1e, 1f was not as good as for RIS and its analogues (1a, 1b, 1c); 10-20% of side products could be observed, which were confirmed by HPLC, NMR and MS to be the products of N,O(P)-dialkylation (O-alkylation occurs between the phosphonate/carboxylate group of the drug and the epoxide). The reaction rate of MinPC (1f)-epoxide (5) coupling was even slower than ZOL under the same reaction conditions (same reactant ratio, pH 7.5, 40-45° C.), which might be due to a steric effect from the large heterocycle. In addition, the percent of side products was higher and O-alkylation products were also observed in the reaction mixture.
The following publications are incorporated by reference herein in their entirety: • [1] a) R. G. G. Russell, N. B. Watts, F. H. Ebetino, M. J. Rogers, Osteoporos. Int. 2008, 19, 733-759; b) F. Ebetino, A. Hogan, S. Sun, M. Tsoumpra, X. Duan, J. Triffitt, A. Kwaasi, J. Dunford, B. Barnett, U. Oppermann, M. Lundy, A. Boyde, B. Kashemirov, C. McKenna, R. Russell, Bone 2011, 49 20-33. • [2] a) I. Reid, M. Bolland, A. Grey, Bone 2007, 41, 318-320; b) A. Siddiqi, A. Payne, S. Zafar, Oral Surg. Oral Med. Oral Pathol. Oral Radiol. Endod. […]

[6] = parent compounds, ref. [23]; cited from earlier work

For `O=C(NCC(O)C[n+]1ccn(CC(O)(P(=O)(O)O)P(=O)(O)O)c1)c1ccc(-c2c3ccc(=O)cc-3oc3cc(O)ccc23)c(C(=O)O)c1` (centres unmarked) [Compound 5-FAM-ZOL, 3-(3-(3-carboxy-4-(6-hydroxy-3-oxo-3H-xanthen-9-yl)benzamido)-2-hydroxypropyl)-1-(2-hydroxy-2,2-diphosphonoethyl)-1H-imidazol-3-ium], the “Maximum absorption wavelength (λmax (abs), nm)” value [1] is listed as 493 nm, the “Maximum emission wavelength (λmax (em), nm)” value [1] is listed as 521 nm and the Anti-resorptive activity (bone resorption) is listed as “demonstrated”. The “accumulation of unprenylated Rap1A (anti-prenylation activity)” value [2] was “retain some activity, although their potencies are weaker than native ZOL” and the Extinction coefficient [3] was 73,000 (pH 7.2) M^−1cm^−1.
For `O=P(O)(O)C(O)(Cc1cccnc1)P(=O)(O)O` [RIS, (1-hydroxy-2-pyridin-3-ylethane-1,1-diyl)bis(phosphonic acid)], the “pKa of the heterocyclic nitrogen” value [4] is given as 5.67, the “fraction of the heterocyclic nitrogen deprotonated” value [5] is given as roughly 71.3% and the “rank order of mineral binding affinity” value [6] is given as “RIS>dRIS>RISPC”.

From patent publication US20180064829A1, “FLUORESCENT BISPHOSPHONATE ANALOGS” (University of Southern California, priority 2015, published 2018)
